Data as given in US12551495B2, “Phytoecdysones and derivatives thereof for use in treating disordered respiratory function on viral infection” (priority 2020, dated 2026).

What was measured:
Mas receptor = molecular target: T1, Mas receptor (Homo sapiens, UniProt P04201); conditions: Dilda et al. 2019; cited from earlier work
T1 sequence (P04201 1-325): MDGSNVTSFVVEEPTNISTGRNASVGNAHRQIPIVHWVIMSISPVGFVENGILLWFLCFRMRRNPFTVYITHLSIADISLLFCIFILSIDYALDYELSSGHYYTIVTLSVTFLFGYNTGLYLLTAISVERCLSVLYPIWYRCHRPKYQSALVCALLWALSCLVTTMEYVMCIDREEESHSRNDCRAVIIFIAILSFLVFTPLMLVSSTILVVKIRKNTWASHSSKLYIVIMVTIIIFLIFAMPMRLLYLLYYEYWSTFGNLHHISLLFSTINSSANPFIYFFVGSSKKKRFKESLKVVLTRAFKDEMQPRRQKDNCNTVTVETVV

[1] = test system: mouse model of acute lung injury (ALI); conditions: Xia et al. 2016, Song et al. 2019; cited from earlier work
[2] = test system: hypertensive type SH (spontaneously hypertensive) rats; experiment: Mean arterial pressure by telemetry in spontaneously hypertensive rats, single oral administration; type: in vivo, rat; conditions: Enalapril 50 mg/kg
Description: The effects of BIO101 alone were evaluated after a single oral administration. Six SH rats were used in crossover treatments with an elimination period of a minimum of 72 hours between treatments. Prior to the treatment, the animals were equipped with telemetry instruments for measuring arterial pressure. For the experiment described in FIG. 2A the animals received the following treatments: vehicle, either BIO101 at 5 mg/kg, or BIO101 at 50 mg/kg, or Enalapril at 50 mg/kg.
The inventors tested the phytoecdysones and more particularly BIO101 on the mean arterial pressure by telemetry, in hypertensive animals after oral administration at the doses of 5 and 50 mg/kg. The study relates to hypertensive type SH (spontaneously hypertensive) rats.
BIO101 therefore has no anti-hypertensive effect.

Compound	activity on Mas receptor (Mas receptor)	anti-inflammatory cytokines (IL-4, IL-10) [1]	lung injuries (histological examination) [1]	plasmatic inflammatory cytokines (TNF-α, IL-2, IL-6, IL-8) [1]	anti-hypertensive activity (mean arterial pressure) [2]
CC(C)(O)CC[C@@H](O)[C@](C)(O)[C@H]1CC[C@@]2(O)C3=CC(=O)[C@@H]4C[C@@H](O)[C@@H](O)C[C@]4(C)[C@H]3CC[C@]12C [20-hydroxyecdysone]	activates	increased	reduction in lung injuries	reduced	–
CCOC(=O)[C@H](CCc1ccccc1)N[C@@H](C)C(=O)N1CCC[C@H]1C(=O)O [Enalapril]	–	–	–	–	has an anti-hypertensive activity
